Each block holds one compound with its values, some of them ahead of it.
Assays:
[1] = Photodiode array (PDA) detection in mouse brain; assay type: in vivo; conditions: FIG. 1
Text: FIG. 1 is a graph showing a photodiode array (PDA) spectrum of WHYKD8 in mouse brain.
A photodiode array (PDA) was used to detect WHYKD8 in mouse brain (FIG. 1).

Autophagy Markers = experiment: Autophagy markers (Cyto-ID assay) in HEK 293 cells expressing mKate2 Tau; assay type: cell-based, Human; conditions: HEK 293 mKate2 Tau cells
Procedure: The dye used in the kit prevents its accumulation within lysosomes, but enables labelling of vacuoles associated with the autophagy pathway using the LC3 biomarker.
The test compounds (along with CytoID™ dye and Hoechst stain) were added to the cells and incubated for 3 hours. Reference compounds were also used in each plate, Rapamycin was used for autophagy induction and chloroquine was used for lysosomal inhibition. After 3 hours test compound was aspirated off and kept. Cells were then washed and read using a fluorescence plate reader. Hoescht, Cyto-ID™ and mKate2 were measured using 3 distinct wavelengths on the plate reader. The Hoescht measurement allowed normalisation of results across wells. After reading, test compound was re-added and the cells are left for a further 21 hours. At the 24 hour time point cells were once again washed and plates read using the fluorescence plate reader.
2) Test samples were prepared in warm FluoroBrite™ DMEM and with 10% FBS and 1% NEAA (FB-DMEM). […]
5) Treatment plate was then washed quickly 3 times with warm FB-DMEM (100 μL/well). […] At this point, the plate was ready for reading. See details in Reading Plate section. Hoescht was read at Excitation wavelength (Ex)=355 nm & Emission wavelength (Em)=446 nm. mKate2 was read at Ex=575 nm & Em=630 nm. Cyto-ID™ was read at Ex=463 nm & Em=534 nm. […]

PLD2 = molecular target: T1, PLD2 (Homo sapiens, UniProt O14939); experiment: PLD2 activity: Proteostat/mKate2 with PLD1 inhibitor VU0150669; assay type: cell-based
T1 construct: endogenous in cells; host or cells: HEK 293 Jump-In cells expressing mKate2-Tau
T1 sequence (O14939 whole entry): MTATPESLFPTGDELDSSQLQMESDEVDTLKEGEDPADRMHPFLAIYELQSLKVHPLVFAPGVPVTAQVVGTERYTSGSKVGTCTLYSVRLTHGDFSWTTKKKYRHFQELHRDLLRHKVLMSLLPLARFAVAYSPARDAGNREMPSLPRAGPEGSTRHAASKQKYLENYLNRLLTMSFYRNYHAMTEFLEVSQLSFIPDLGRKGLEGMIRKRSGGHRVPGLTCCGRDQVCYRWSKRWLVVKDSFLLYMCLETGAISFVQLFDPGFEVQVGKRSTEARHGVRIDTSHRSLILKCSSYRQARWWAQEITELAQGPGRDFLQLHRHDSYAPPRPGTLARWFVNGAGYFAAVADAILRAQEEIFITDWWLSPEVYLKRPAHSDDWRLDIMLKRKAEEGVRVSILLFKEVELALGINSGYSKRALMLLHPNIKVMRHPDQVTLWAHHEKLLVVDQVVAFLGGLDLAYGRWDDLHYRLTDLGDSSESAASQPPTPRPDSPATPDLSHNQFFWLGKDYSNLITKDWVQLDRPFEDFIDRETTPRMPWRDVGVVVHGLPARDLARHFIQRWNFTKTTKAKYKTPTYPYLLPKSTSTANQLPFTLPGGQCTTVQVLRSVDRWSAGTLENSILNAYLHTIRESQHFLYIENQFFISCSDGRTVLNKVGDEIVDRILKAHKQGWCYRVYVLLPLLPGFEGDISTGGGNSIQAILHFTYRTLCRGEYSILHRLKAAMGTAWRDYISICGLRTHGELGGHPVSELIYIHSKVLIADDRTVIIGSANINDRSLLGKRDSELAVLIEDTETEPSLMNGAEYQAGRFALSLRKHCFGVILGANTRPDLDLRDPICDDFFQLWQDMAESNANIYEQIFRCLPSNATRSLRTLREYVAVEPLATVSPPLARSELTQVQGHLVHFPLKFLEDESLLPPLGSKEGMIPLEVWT
Procedure: The assay was run in e18 primary cortical neurons from PLD1 or PLD2 KO mice cultured for 14 days. Alternatively, the assay can be run in the cells described above in the presence of excess PLD1 or PLD2 inhibitor to preclude that particular action from contributing to the effect of the drug.
4) On the day of experiment, cells were washed in warmed HBSS twice before media containing test compound (n=3 per compound per dose), inhibitor (355 nM ML298 or 50 nM VU0150669), or vehicle are added to the wells (1.5 mL in 6 well, 600 μL in 12 well). Plates were incubated for 24 hours at 37° C. with 5% CO2.

[2] = test system: HEK 293 (Human Embryo Kidney) cell line
Procedure: The cells were grown in the presence of the antibiotic doxycycline. When the antibiotic is removed the cells produce Tau (which can be quantified), thus allowing the test compounds' effects on Tau's production to be compared. Doxycycline was removed for 72 hours prior to exposure to the test compounds to promote sufficient Tau production. Cells were subsequently plated into plates for each of the assays described below.

detection in mouse brain by photodiode array [1]: readily detected
SMILES: Oc1ccc(CCNc2ncnc3ccc(Cl)cc23)cc1 [WHYKD8]

SMILES: Fc1ccc2ncnc(SC3CCOCC3)c2c1 [WHYKD19]
% Increase Autophagy Markers (Autophagy Markers): 350%

SMILES: c1cnc2c(SC3CCCC3)ncnc2c1 [WHYKD36]
Proteostat PLD2/PLD1 ratio (PLD2; ratio of Proteostat values): 1.5
mKate2 PLD2/PLD1 ratio (PLD2; ratio of mKate2 values): 1.7
CC50 [2]: 67 µM

Reference: patent US11230558B2, “Activators of autophagic flux and phospholipase D and clearance of protein aggregates including tau and treatment of proteinopathies” (THE TRUSTEES OF COLUMBIA UNIVERSITY IN THE CITY OF NEW YORK, priority 2015, dated 2022)
